We go through four molecules from US9724391B2, “Combination preparation including a corticosteroid and exosomes” (ORTHOGEN AG, priority 2009, dated 2017).

For test [1], the system named is patient with psoriasic arthritis. The settings on record: cortisone 20-40 mg intraarticular, effect for some days; combination after a few days.
Test [2] concerns patient with partial rotator cuff rupture and complete shoulder stiffness le. As to conditions: before combination therapy.
Method: Surgery appointment for the left shoulder was made. Here it should be tried to avoid surgery. […] 2 ml Orthokine were administered into the shoulder with 10 mg Anakinra and 10 mg triamcinolone via a syringe. […] The therapy was continued until day 4.
The subject of test [3] is patient with complete alopecia. The settings on record: systemic and local application, high doses (10-80 mg prednisolone).
In test [4] the test system is patient with severe neurodermitis. The experiment in a line: Case IX: severe neurodermitis, intramuscular application. The format is in vivo, human. The settings on record: systemic intramuscular application, doses of 80 mg. As for the experimental part:
FIG. 1A to FIG. 1C show pictures of the feet of a neurodermitis patient whose case is described below as case IX (Example 4).
Case IX: • Severe dermatologically verified neurodermitis with strong changes, especially in the area of hands and feet. […] After that, attempt of intramuscular application of 2 ml of exosomes in connection with 20 mg triamcinolone. […] Subsequent slight deterioration but still improvement compared to preliminary findings. FIG. 1A describes the dermatological changes at both feet immediately before treatment, FIG. 1B and FIG. 1C one week after treatment for the right/left foot.

Test [5] relates to patient with gonarthrosis ri, cartilage defects degree 2-4 according to Outerbridge. Kind of test: Case VIII: gonarthrosis ri, intraarticular injection into the right knee. As to conditions: triamcinolone 10-40 mg intraarticular (history); exosomes one-time intraarticular, after 4 weeks. The format is in vivo, human. As for the experimental part: Case VIII: • Gonarthrosis ri with cartilage defects verified arthroscopically degree 2-4 according to Outerbridge. The patient wishes to delay surgery and joint replacement. History of intraarticular injection of triamcinolone in doses of 10-40 mg to no effect. Injection of 1 ml of exosomes prepared by means of the technique as described after incubation with IL-1Ra. […] Afterwards decision for an intraarticular injection into the right knee combined with 10 mg triamcinolone.

For test [6], the system named is patient with severe therapy-resistant rheumatoid arthritis. As to conditions: after one week; triamcinolone alone 10 mg to 40 mg intraarticular, combination with total 20 mg triamcinolone.
Method: Injection of exosomes (after incubation with IL-1Ra) and admixing total amount of 20 mg triamcinolone in MCP2-5 ab. and both shoulders.
In test [7] the test system is patient with severe Bechterew arthritis. The experiment in a line: Case X: severe Bechterew arthritis, injection into the affected joints. The class given is in vivo, human. As to conditions: total dose 40 mg into all affected joints; for 1 week. How it is done:
Case X • Severe Bechterew arthritis with iridocyclitis left eye. Patient is given prednisolone and MTX in changing doses as basic therapy. CRP 20_3 mg/l; left CFJ clearly swollen with +2 cm compared to the other side; left MCP and first knuckle 1st finger left clearly swollen and painful, right shoulder swollen, painful, abduction reduced by 30 degrees compared to normal. […] CRP within 1 week reduced from 20.3 mg/l to 2.9 mg/l.

The next test concerns osteoarthritis. As to conditions: in vivo; cited from earlier work.

As for `C[C@]12CCC(=O)C=C1CC[C@@H]1[C@@H]2C(=O)C[C@@]2(C)[C@H]1CC[C@]2(O)C(=O)CO` [cortisone], the pain reduction in test [1] is listed as 10-30%. In addition, the “outcome of numerous earlier injections into the left shoulder” value in test [2] is on record as “without success”. For the same molecule, the “effect of earlier therapy attempts on alopecia” value in test [3] was “without effect”.

As to `C[C@]12C=CC(=O)C=C1CC[C@@H]1[C@@H]2[C@@H](O)C[C@@]2(C)[C@H]1CC[C@]2(O)C(=O)CO` [prednisolone], the “duration of short-term effect” value in test [4] is 1 week.

As for `C[C@]12C=CC(=O)C=C1CC[C@H]1[C@@H]3C[C@@H](O)[C@](O)(C(=O)CO)[C@@]3(C)C[C@H](O)[C@@]12F` [triamcinolone], in test [5], the “clinical effect regarding pain and function of single agents” value was “to no effect”. In test [6], the “pain improvement / pain reduction” value is 20%. In test [7], this molecule showed an improvement of 20%. In addition, the “duration of short-term effect” value in test [4] stood at 1 week.

For “Anakinra: recombinant human IL-1 receptor antagonist, amino acids 26-177, terminally L-methionylated, 153 amino acids”, the “effects in the treatment of osteoarthritis compared to a placebo treatment” value in the test on osteoarthritis is listed as “did not show any effects”.
